System: not listed separately
Assay: Antiinflammatory activity in mouse J774A1 cells assessed as reduction of LPS-induced nitric oxide production treated 2 hrs before LPS addition measured after 20 hrs by using Griess reagent
Format: functional, cell-based
Settings: J774.A1

With `C[C@H]1c2ccoc2C[C@H]2[C@H]1CC[C@@H]1[C@]2(C)CCC[C@]1(C)C(=O)O` [(+)-VOUACAPENIC ACID] as the compound, how does the IC50 read?
The IC50 was 132 µM.

Which IC50 does the source give for `CC1(C)OC(=O)C=C[C@]2(C)[C@H]3CC[C@@]4(C)[C@H](c5ccoc5)OC(=O)[C@H]5O[C@]54[C@]3(C)C(=O)C[C@@H]12` [OBACUNONE] here?
The IC50 was 83.6 µM.

Which IC50 does the source give for `COC(=O)/C=C\[C@]1(C)[C@H]2CC[C@@]3(C)[C@H](c4ccoc4)OC(=O)[C@H]4O[C@]43[C@]2(C)[C@]2(O)OC(C)(C)C(=O)[C@@]21O` [HARRISONIN] here?
The IC50 was 135 µM.

With `COc1cc(O)c2c(=O)cc(C)oc2c1CCC(C)(C)O` [HARPERAMONE] as the compound, how does the IC50 read?
Its IC50 is 49.6 µM.

Which IC50 does the source give for `COc1cc2c(c3oc(C)cc(=O)c13)C=CC(C)(C)O2` here?
The IC50 was 66.4 µM.

With `COC(=O)/C=C\[C@]1(C)[C@H]2CC[C@@]3(C)[C@H](C4=CC(O)OC4=O)OC(=O)[C@H]4O[C@]43[C@]2(C)[C@]2(O)OC(C)(C)C(=O)[C@@]21O` (some centres not stated) [HARPERFOLIDE] as the compound, how does the IC50 read?
Its IC50 is 6.51 µM.

Which IC50 does the source give for `CC(=O)c1c(O)c(CC=C(C)C)c(O)c2c1O[C@](C)(CCC=C(C)C)[C@H](OO)C2` here?
Its IC50 is 31 µM.

For `COc1ccc2c(c1)c(CC(=O)O)c(C)n2C(=O)c1ccc(Cl)cc1` [INDOMETHACIN], which IC50 is on record?
Its IC50 is 28.4 µM.

For `COC(=O)c1cc(=O)c2c(O)cc3c(c2o1)C=CC(C)(C)O3`, which IC50 is on record?
The IC50 was 55 µM.

Which IC50 does the source give for `COc1cc2oc(C)cc(=O)c2c(O)c1CC=C(C)C` here?
The IC50 was 56.4 µM.

System: J774.A1
Assay: Antiinflammatory activity in mouse J774A1 cells assessed as reduction of LPS-induced iNOS expression after 6 to 12 hrs by Western blot analysis
Format: functional, cell-based
Settings: not given

With `COC(=O)/C=C\[C@]1(C)[C@H]2CC[C@@]3(C)[C@H](C4=CC(O)OC4=O)OC(=O)[C@H]4O[C@]43[C@]2(C)[C@]2(O)OC(C)(C)C(=O)[C@@]21O` (some centres not stated) [HARPERFOLIDE] as the compound, how does the Activity read?
Its Activity is “Dose-dependent effect”.

System: not listed separately
Assay: Cytotoxicity against mouse J774A1 cells assessed as cell viability at 2.5 to 20 uM after 20 hrs by MTT assay
Format: cell-based
Settings: j774.a1, 20 h

For `COC(=O)/C=C\[C@]1(C)[C@H]2CC[C@@]3(C)[C@H](C4=CC(O)OC4=O)OC(=O)[C@H]4O[C@]43[C@]2(C)[C@]2(O)OC(C)(C)C(=O)[C@@]21O` (some centres not stated) [HARPERFOLIDE], which Activity is on record?
Its Activity is “Non-toxic”.

From ChEMBL document CHEMBL2396624, “Rearranged limonoids and chromones from Harrisonia perforata and their anti-inflammatory activity” (Bioorg Med Chem Lett, 2013)
